≈ marks a conversion by molar mass, not a printed value. Peptide text beside a SMILES is read from it.
Assays:
E.coli (Lab strain) = assay: Antibacterial assay (MIC); type: cell-based; details: 10 mM phosphate buffer pH 6.8, 3 h 37 °C, streaked on Mueller-Hinton agar, no visible growth
Experimental: (§1) Antibacterial assay: The minimum inhibitory concentration (MIC) of the designed peptides was determined against four Gram-negative strains (E. coli, P. aeruginosa ATCC 27853, K. pneumoniae ATCC 13883, S. enterica ATCC 14028) and four Gram-positive strains (B. subtilis, S. aureus ATCC 25923, S. pyogenes ATCC 19615 and E. faecalis ATCC 29212). In brief, mid logarithmic phase of overnight grown bacterial cultures were obtained in LB broth and adjusted to OD600 0.2 in 10 mM phosphate buffer, pH 6.8. About 50 μL of these cells were added to equal volume of designed peptides at two-fold dilutions in 96-well sterile polypropylene plates followed by incubation for 3hrs at 37 °C. Aliquots of the above titrated wells were streaked onto Mueller-Hinton agar plates and the concentration at which no visible bacterial growth was observed considered as the MIC value of the peptide.

[1] = system: P.aeruginosa (ATCC 27853); assay: Antibacterial assay (MIC); type: cell-based; details: 10 mM phosphate buffer pH 6.8, 3 h 37 °C, streaked on Mueller-Hinton agar
Experimental: as §1

[2] = system: K. pneumoniae (ATCC 13883); assay: Antibacterial assay (MIC); type: cell-based; details: 10 mM phosphate buffer pH 6.8, 3 h 37 °C, streaked on Mueller-Hinton agar
Experimental: as §1

B.subtilis (Lab strain) = assay: Antibacterial assay (MIC); type: cell-based; details: 10 mM phosphate buffer pH 6.8, 3 h 37 °C, streaked on Mueller-Hinton agar
Experimental: as §1

E.faecalis (ATCC 29212) = assay: Antibacterial assay (MIC); type: cell-based; details: 10 mM phosphate buffer pH 6.8, 3 h 37 °C, streaked on Mueller-Hinton agar
Experimental: as §1

S.enterica (ATCC 14028) = assay: Antibacterial assay (MIC); type: cell-based; details: 10 mM phosphate buffer pH 6.8, 3 h 37 °C, streaked on Mueller-Hinton agar
Experimental: as §1

S.aureus (ATCC 25923) = assay: Antibacterial assay (MIC); type: cell-based; details: 10 mM phosphate buffer pH 6.8, 3 h 37 °C, streaked on Mueller-Hinton agar
Experimental: as §1

S.pyogenes (ATCC 19615) = assay: Antibacterial assay (MIC); type: cell-based; details: 10 mM phosphate buffer pH 6.8, 3 h 37 °C, streaked on Mueller-Hinton agar
Experimental: as §1

E. coli cells = assay: Zeta potential measurements; type: cell-based; details: 4 μM peptide; cells without peptide about −20.0 mV; OD600 0.2
Experimental: Zeta potential measurements: The zeta potential measurements were carried out on a Zetasizer Nano ZS (Malvern Instruments, Worcestershire, UK) equipped with a 633 nm He lasers. Mid-log phase grown bacterial cells were diluted to an OD600 of 0.2 and a basal measurement in the absence of peptides was acquired in disposable zeta cells with gold electrodes. Increasing concentrations of the designed peptides were then added to the cells and the measurements were made. A total of five measurements of 100 runs each were carried out for all dilutions.

LPS micelles [3] = assay: Isothermal titration calorimetry; type: binding, E. coli 0111:B4; details: ITC; for Ka: 1 mM peptide into 10 μM LPS, 10 mM phosphate buffer pH 7.0, 25 °C, single site binding model; for Kd: LPS micelles, pH 7.0, 25 °C, Kd = 1/Ka
Experimental: Isothermal titration calorimetry: Binding of designed peptides with LPS micelles was determined using isothermal titration calorimetry in VP-ITC micro calorimeter (Microcal Inc, Northampton, MA, USA). Peptides and LPS samples were dissolved in 10 mM phosphate buffer, pH 7.0 and filtered. LPS at a concentration of 10 μM was loaded into the sample cell and the reference cell was filled with the same buffer. The syringe was filled with 1mM peptide solution. Typically 30 injections of 3.5 μL of the peptides were made into the sample cell at 25 °C. Sample cell was stirred continuously at 300 rpm. Raw data were obtained and analyzed using single site binding model in Microcal Origin 5.0 software. Association constant (Ka) and enthalpy change (ΔH) were directly determined from ITC profiles. Dissociation constant was calculated from Kd = 1/Ka. ΔG and TΔS were estimated from the fundamental equations of thermodynamics, ΔG = −RTlnKa and TΔS = (ΔH − ΔG), respectively.

red blood cells = details: mouse RBC ~4% (v/v) in PBS pH 7.0, 1 h, OD540, 1% Triton-X = positive control
Experimental: Hemolytic assay: Blood was collected from healthy mice in a tube containing EDTA. Cells with EDTA were centrifuged at 800 g for 10 min, to remove the buffy plasma coat layer, and washed three times in PBS (35 mM phosphate buffer, 150 mM NaCl, pH 7.0). 50 μL of RBC solution was added to equal volume of two-fold dilution of the peptides in 96-well micro titer plates and incubated for one hour. The final erythrocyte concentration estimated to be ~4% (v/v). After one hour, the mixture was centrifuged and the release of hemoglobin in the supernatant was determined spectrophotometrically at OD540. Buffer and 1% Triton-X in the place of peptides used as negative control and positive control, respectively. The percentage of hemolysis was calculated using the following method: Percentage of hemolysis = (OD peptide − OD buffer)/(OD Triton-X-OD buffer) × 100

LPS (endotoxin) = assay: LPS neutralization assay (chromogenic LAL kit); type: biochemical; details: for LPS neutralization: 1.0 μM peptide
Experimental: LPS neutralization assay: LAL chromogenic kit (QCL 100 Cambrex, Walkersville, MD, USA) was used to determine endotoxin neutralization of the designed peptides following protocol of the vendor. LPS in Gram negative bacteria activates a proenzyme in limulus amoebocyte lysate (LAL). This activated enzyme in turn catalytically release a colored product pNA from the colorless substrate Ac-Ile-Glu-Ala-Arg-pNA which is detected spectrophotometrically at OD410. All peptides were dissolved in the pyrogen-free water supplied with the kit and pH was adjusted to 7.0 with 1N HCl or 1N NaOH (which is prepared in pyrogen-free water). The increasing concentrations of the peptides were incubated with three different concentrations of endotoxins, i.e., at 0.4, 0.8 and 1.0 endotoxin units (EU) in a total volume of 50 μL for 30 minutes at 37 °C. About 50 μL of LAL reagent was added to peptide-LPS complex and further incubated for 10 minutes followed by addition of 100 μL substrate. After incubation of six minutes for the reaction, the release of colored product was recorded at OD410. Water in the place of peptides served as negative control (blank) that is considered as 0% inhibition and percentage of LPS neutralization was calculated by: % of LPS neutralization = [(OD blank − OD peptide)/OD blank] × 100

[4] = Reverse phase HPLC retention time (hydrophobicity); type: physicochemical; parameters: unit not given beside the values; details: C18 column (300 Å pore size, 5 μm particle size), linear gradient acetonitrile/water, higher Rt taken as more hydrophobic
From the text: Materials: LPS of E. coli 0111:B4, FITC-LPS of E. coli 055:B5, acrylamide, NPN (1-N-phenylnaphthylamine) were purchased from Sigma (Saint Louis, MO, USA). All bacterial strains were obtained from the American Type Culture Collection (Manassas, VA, USA). Designed peptides were synthesized commercially by GL Biochem (Shanghai, China) and further purified by a reverse phase HPLC (Waters), using a C18 column (300 Å pore size, 5 μm particle size). The dimeric variants of β-boomerang lipopeptides were treated with 20% DMSO for 18 hours and the oxidized peptides were further purified by HPLC. A linear gradient of acetonitrile/water mixture was used for the purification and fractions eluting with higher purity were collected and freeze-dried.
In addition, incorporation of disulfide bridges in AMPs may stabilize conformations and enhance cationicity and hydrophobicity required for enhanced activity. […] Residue Ile10 was chosen for Cys replacement since this residue is located at the exposed face of the β-strand of the YI12WF structure (Figure 1).

LPS micelles [5] = assay: Dynamic light scattering of LPS micelles; parameters: species or system E. coli 0111:B4; details: DLS, 0.5 μM LPS, LPS:peptide 1:4; LPS alone 814 nm
Experimental: Dynamic light scattering measurements: LPS forms micelles of large sizes, which with the addition of increasing concentration of peptides, dissociates to smaller sizes. DLS measurements were made for 0.5 μM LPS and then with LPS: Peptide ratios of 1:2 and 1:4. The scattering was measured with Dynamic Light Scattering software provided with the instrument (Brookhaven Instruments Corp., Holtsville, NY, USA) and the scattering data was analyzed with CONTIN method.

## CCCC(=O)N[C@@H](Cc1ccc(O)cc1)C(=O)N[C@H](C(=O)N[C@@H](CC(C)C)C(=O)N[C@@H](Cc1c[nH]c2ccccc12)C(=O)N[C@@H](CCCCN)C(=O)N[C@@H](CCCNC(=N)N)C(=O)N[C@@H](CCCCN)C(=O)N[C@@H](CCCNC(=N)N)C(=O)N[C@@H](CCCCN)C(=O)N[C@@H](Cc1ccccc1)C(=O)N[C@@H](CSSC[C@H](NC(=O)[C@H](Cc1ccccc1)NC(=O)[C@H](CCCCN)NC(=O)[C@H](CCCNC(=N)N)NC(=O)[C@H](CCCCN)NC(=O)[C@H](CCCNC(=N)N)NC(=O)[C@H](CCCCN)NC(=O)[C@H](Cc1c[nH]c2ccccc12)NC(=O)[C@H](CC(C)C)NC(=O)[C@@H](NC(=O)[C@H](Cc1ccc(O)cc1)NC(=O)CCC)C(C)C)C(=O)N[C@@H](Cc1ccccc1)C(=O)N[C@H](C(N)=O)[C@@H](C)CC)C(=O)N[C@@H](Cc1ccccc1)C(=O)N[C@H](C(N)=O)[C@@H](C)CC)C(C)C [C4YI13C] (HELM PEPTIDE1{[CCCC(=O)[*:2]].Y.V.L.W.K.R.K.R.K.F.C.F.I.[am]}|PEPTIDE2{[CCCC(=O)[*:2]].Y.V.L.W.K.R.K.R.K.F.C.F.I.[am]}$PEPTIDE1,PEPTIDE2,12:R3-12:R3$$$V2.0)
E.coli (Lab strain)
  Minimum inhibitory concentration (MIC): 10 µM (≈ 37.1 µg/mL)
[1]
  Minimum inhibitory concentration (MIC): 15 µM (≈ 55.7 µg/mL)
[2]
  Minimum inhibitory concentration (MIC): 8 µM (≈ 29.7 µg/mL)
B.subtilis (Lab strain)
  Minimum inhibitory concentration (MIC): 15 µM (≈ 55.7 µg/mL)
E.faecalis (ATCC 29212)
  Minimum inhibitory concentration (MIC): 50 µM (≈ 186 µg/mL)
S.enterica (ATCC 14028)
  Minimum inhibitory concentration (MIC): 50 µM (≈ 186 µg/mL)
S.aureus (ATCC 25923)
  Minimum inhibitory concentration (MIC): 50 µM (≈ 186 µg/mL)
S.pyogenes (ATCC 19615)
  Minimum inhibitory concentration (MIC): 50 µM (≈ 186 µg/mL)
E. coli cells
  Zeta potential of E. coli cells after peptide addition: about +19.1 mV
LPS micelles [3]
  Ka: 2.2 µM⁻¹
  Kd: 450 nM
Red blood cells
  % of hemolysis at 50 μM peptide concentration: 14.1%
LPS (endotoxin); 0.4 EU endotoxin, 30 min 37 °C, OD410
  LPS neutralization: ~ 40%
LPS (endotoxin); 1.0 EU endotoxin
  LPS neutralization: 50%
[4]
  Retention time (Rt): 31.62
LPS micelles [5]
  Diameter of LPS aggregates: 331 nm

## CC[C@H](C)[C@H](NC(=O)[C@H](Cc1ccccc1)NC(=O)[C@H](CSSC[C@H](NC(=O)[C@H](Cc1ccccc1)NC(=O)[C@H](CCCCN)NC(=O)[C@H](CCCNC(=N)N)NC(=O)[C@H](CCCCN)NC(=O)[C@H](CCCNC(=N)N)NC(=O)[C@H](CCCCN)NC(=O)[C@H](Cc1c[nH]c2ccccc12)NC(=O)[C@H](CC(C)C)NC(=O)[C@@H](NC(=O)[C@@H](N)Cc1ccc(O)cc1)C(C)C)C(=O)N[C@@H](Cc1ccccc1)C(=O)N[C@H](C(N)=O)[C@@H](C)CC)NC(=O)[C@H](Cc1ccccc1)NC(=O)[C@H](CCCCN)NC(=O)[C@H](CCCNC(=N)N)NC(=O)[C@H](CCCCN)NC(=O)[C@H](CCCNC(=N)N)NC(=O)[C@H](CCCCN)NC(=O)[C@H](Cc1c[nH]c2ccccc12)NC(=O)[C@H](CC(C)C)NC(=O)[C@@H](NC(=O)[C@@H](N)Cc1ccc(O)cc1)C(C)C)C(N)=O [YI13C] (HELM PEPTIDE1{Y.V.L.W.K.R.K.R.K.F.C.F.I.[am]}|PEPTIDE2{Y.V.L.W.K.R.K.R.K.F.C.F.I.[am]}$PEPTIDE1,PEPTIDE2,11:R3-11:R3$$$V2.0)
E.coli (Lab strain)
  Minimum inhibitory concentration (MIC): 12.5 µM (≈ 44.6 µg/mL)
[1]
  Minimum inhibitory concentration (MIC): 20 µM (≈ 71.4 µg/mL)
[2]
  Minimum inhibitory concentration (MIC): 25 µM (≈ 89.3 µg/mL)
B.subtilis (Lab strain)
  Minimum inhibitory concentration (MIC): 20 µM (≈ 71.4 µg/mL)
E.faecalis (ATCC 29212)
  Minimum inhibitory concentration (MIC): 50 µM (≈ 179 µg/mL)
S.enterica (ATCC 14028)
  Minimum inhibitory concentration (MIC): 50 µM (≈ 179 µg/mL)
S.aureus (ATCC 25923)
  Minimum inhibitory concentration (MIC): 20 µM (≈ 71.4 µg/mL)
S.pyogenes (ATCC 19615)
  Minimum inhibitory concentration (MIC): 50 µM (≈ 179 µg/mL)
LPS micelles [3]
  Ka: 4.2 µM⁻¹
  Kd: 230 nM
Red blood cells
  % of hemolysis at 50 μM peptide concentration: 21.5%
LPS (endotoxin); 10 μM peptide concentration
  LPS neutralization (in words): neutralization activity equal to acylated analogs
[4]
  Retention time (Rt): 27.48
LPS micelles [5]
  Diameter of LPS aggregates: 291 nm
